Results: paper PMC5897336, “Phosphatase activity tunes two-component system sensor detection threshold” (Nature Communications, 2018)

Tested on: ThsS
Conditions: read-out: K1/2; whole E. coli cells, M9 glycerol, 37 °C, agonist, added as Na2S2O3, 200 μM IPTG, 20 ng/mL aTc; wild type taken as the upper end of the printed range

SMILES: O=S(=O)(O)S [thiosulfate]
- EC50: 192 µM
